Results reported in patent US20260021084A1, “METHOD OF TREATING ORGAN DISEASES OR DISORDERS WITH ASK1 INHIBITORS” (Seal Rock Therapeutics, Inc., priority 2022, published 2026).

Assays:
Type in all cases: in vivo
C57Bl/6 male mice = assay: Efficacy of intravenous ASK1 inhibitor in liver injury due to acute alcoholic hepatitis (pyrazole/LPS model), plasma ALT; details: IV 0.3 and 3 mg/kg twice (3 hours apart), plasma 24 h after LPS
Protocol: The goal of the study is to evaluate whether IV administered ASK1 inhibitor can reduce liver injury due to acute alcoholic hepatitis (AH).
Seven-day acclimated C57Bl/6 male mice were treated with pyrazole for 2-days to induce CYP2E, prior to ASK1 inhibitor and lipopolysaccharide (LPS) administration. On day 3, ASK1 inhibitor 2-(6-(4-cyclopropyl-4H-1,2,4-triazol-3-yl)pyridin-2-yl)-5-(morpholine-4-carbonyl)isoindolin-1-one was administered by IV injection via tail vein at 0.3 and 3 mg/kg or vehicle twice (3 hours apart). LPS was administered intraperitoneally 30 min after the first dose of 2-(6-(4-cyclopropyl-4H-1,2,4-triazol-3-yl)pyridin-2-yl)-5-(morpholine-4-carbonyl)isoindolin-1-one. LPS administration emulates the inflammation by gut bacteria penetrating the intestinal wall following binge drinking. 24 h after LPS administration, plasma was collected for ALT analysis to estimate reduction of liver injury following intravenous treatment with ASK1 inhibitor.

[1] = Organ distribution of ASK1 inhibitor in rats after oral administration; details: male, Sprague-Dawley, rat, single oral 300 mg/kg
Protocol: The objective of this study was to investigate organ (liver, heart, kidney) distribution of ASK1 inhibitor in male Sprague Dawley rats following a single oral (PO) administration at a dose of 300 mg/kg. Three rats are administered orally with suspension formulation of ASK1 inhibitor 2-(6-(4-cyclopropyl-4H-1,2,4-triazol-3-yl)pyridin-2-yl)-5-(morpholine-4-carbonyl)isoindolin-1-one in a formulation of 0.1% Tween 80 and 99.9% HPMC (0.5% w/v in water) at 300 mg/kg dose.
(§1) Blood samples (approximately 120 μL) were collected under light isoflurane anesthesia from retro orbital plexus from a set of three rats at 1 h post PO administration. Immediately after blood collection, plasma was harvested by centrifugation at 4000 rpm, 10 min at […] and samples were stored at −70±10° C. until bioanalysis. Animals were sacrificed immediately followed by abdominal vena-cava cut open and whole body was perfused from heart using 10 mL of normal saline. After isolation, tissue samples were rinsed three times in ice cold normal saline (for 5-10 seconds/rinsed using ˜5-10 mL normal saline in disposable petri dish for each rinse, dried on blotting paper and weighed. Tissue (liver, heart, kidney) samples were homogenized using ice-cold phosphate buffer saline (pH−7.4). Total homogenate volume was five times the tissue weight. All homogenates were stored below −70±10° C. until bioanalysis.
(§2) Plasma, liver, heart, kidney, pancreas, spleen, and skin samples were quantified by fit-for-purpose LC-MS/MS method.

[2] = Organ distribution of ASK1 inhibitor in rats after intravenous administration; details: male, Sprague-Dawley, rat, single IV 10 mg/kg
Protocol: The objective of this study was to investigate organ (liver, heart, kidney, pancreas, spleen and skin) distribution of ASK1 inhibitor in male Sprague Dawley rats following a single intravenous (IV) administration at a dose of 10 mg/kg. Three rats are administered intravenously with a solution formulation of ASK1 inhibitor 2-(6-(4-cyclopropyl-4H-1,2,4-triazol-3-yl)pyridin-2-yl)-5-(morpholine-4-carbonyl)isoindolin-1-one in 5% NMP, 15% Solutol HS-15, 20% PEG-400 and 60% HpBetaCD at 10 mg/kg dose. 2-(6-(4-Cyclopropyl-4H-1,2,4-triazol-3-yl)pyridin-2-yl)-5-(morpholine-4-carbonyl)isoindolin-1-one was prepared as described in US2018/0291002 which is herein incorporated by reference in its entirety.
as §1, with “IV injection.” for “PO administration.”, “kidney, pancreas, spleen and skin)” for “kidney)”
as §2

[3] = heart / plasma, read-out: Tissue-to-plasma ratio, Heart
[4] = kidney / plasma, read-out: Tissue-to-plasma ratio, Kidney
[5] = liver / plasma, read-out: Tissue-to-plasma ratio, Liver

- Kp at 1 h [1, 3]: 1.13
- Kp at 1 h [1, 4]: 7.47
- Kp at 1 h [1, 5]: 13.8
- Kp at 1 h [2, 3]: 1.11
- Kp at 1 h [2, 4]: 5.99
- Kp at 1 h [2, 5]: 9.37
- Kp at 1 h ([2]; pancreas / plasma, read-out: Tissue-to-plasma ratio, Pancreas): 0.99
- Kp at 1 h ([2]; skin / plasma, read-out: Tissue-to-plasma ratio, Skin): 0.46
- Kp at 1 h ([2]; spleen / plasma, read-out: Tissue-to-plasma ratio, Spleen): 0.89
SMILES: O=C(c1ccc2c(c1)CN(c1cccc(-c3nncn3C3CC3)n1)C2=O)N1CCOCC1 [2-(6-(4-cyclopropyl-4H-1,2,4-triazol-3-yl)pyridin-2-yl)-5-(morpholine-4-carbonyl)isoindolin-1-one]
- lowered plasma ALT levels (C57Bl/6 male mice): 74-85%
